The values that follow come from publication PMC8766756, “Insights on Cancer Cell Inhibition, Subcellular Activities, and Kinase Profile of Phenylacetamides Pending 1H-Imidazol-5-One Variants” (Frontiers in Pharmacology, 2022).

The test system of series [1] is PC3 prostate cancer cell line. In words: SRB cytotoxicity assay. The class given is cell-based, human. Conditions: Homo sapiens, 72 h, read-out: IC50 ± SEM PC3. The protocol:
(§1) The compounds were screened for their anticancer activities against a variety of cancer cell lines. The cytotoxic effect of the compounds was evaluated using the sulforhodamine B (SRB) cytotoxicity assay for breast cancer line (MCF7) and prostate cancer cell line (PC3) ([Vichai and Kirtikara, 2006]; [Rana et al., 2021]) and 3-(4,5-dimethylthiazol-2-yl)-2,5-diphenyl-2H-tetrazolium bromide (MTT) assay for the colon cancer (HCT116) cell lines ([El-Huneidi et al., 2020]). The CellTiter-Blue® cell viability assay was performed on the various leukemia cell lines, HL60, NB4, and KG1a cells ([Akter et al., 2019]). The IC50 values are illustrated in Table 1.
(§2) MCF7 (breast), PC3 (prostate), and HCT116 (colon) cancer cell lines were obtained from ATCC, Manassas, VA, USA. Cells were grown in Roswell Park Memorial Institute-1640 (RPMI-1640) medium (Thermo Fisher Scientific, Inc., Waltham, MA, USA), supplemented with 10% heat inactivated fetal bovine serum (FBS), 50 units/mL of penicillin, and […] of streptomycin and maintained at 37°C in a humidified atmosphere containing 5% CO2. The cells were maintained as “monolayer culture” by serial subculturing.
(§3) Exponentially growing MCF7 and PC3 cells were collected using 0.25% Trypsin-EDTA and were then seeded in 96-well plates at a density of 1,000–2,000 cells/well in 10% FBS and penicillin/streptomycin supplemented RPMI-1640 medium. After 24 h, the cells were treated with different concentrations of the test compounds and incubated for 72 h at 37°C in a humidified atmosphere containing 5% CO2. Next, the cells were fixed by trichloroacetic acid (TCA) (10% final concentration in wells) directly to the wells and incubated for 1 h at 4°C, then the cells were washed with distilled water five times to remove excess TCA, media, serum proteins, and metabolites, followed by air drying. After that, the fixed cells were stained with 0.4% SRB dissolved in 1% acetic acid for 10 min at room temperature, and excess stain was removed by quickly rinsing with 1% acetic acid. The residual acetic acid was removed completely by air drying the plates for 24 h, and the dye was solubilized with Tris buffer (pH = 7.4, 10 mM) for 5 min on a shaker at 1,600 rpm. The optical density of each well was measured spectrophotometrically at 564 nm with an ELISA microplate reader (ChroMate-4300, FL, USA). The IC50 values were calculated according to the equation for Boltzman sigmoidal concentration–response curve using the nonlinear regression fitting models (GraphPad®, Prism Version 5).
On the technique in general: In SRB staining, fixed cells bind dye roughly in proportion to their protein.

The test system of series [2] is MCF7 breast cancer cell line. In words: SRB cytotoxicity assay. The format is cell-based, human. Conditions: for IC50: Homo sapiens, MCF7, 72 h, MCF7, SRB, 72 h, read-out: IC50 ± SEM MCF7. The method, then: as §1, §2, §3
Series [3] concerns HCT116 colon cancer cell line. Briefly: MTT antiproliferative assay. The format is cell-based. Conditions: Homo sapiens, HCT-116; HCT116, MTT, 72 h; read-out: IC50 ± SEM HCT116. The method, then:
as §1, §2
The test compounds were evaluated for antiproliferative activity using the MTT viability assay against the HCT116 cell line. The cells were seeded in triplicate in 96-well plates at a density of 10 × 10^3 cells/mL in a total volume of 200 µL per well. 0.1% of DMSO was used as a vehicle control. Each well was treated with 2 µL of test compound, which had been preprepared as stock solutions in ethanol to furnish the concentration range of the study, 0.1–50 μM, and re-incubated for a further 72 h at 37°C in a humidified atmosphere containing 5% CO2. The culture medium was then removed, and the cells were washed with 100 µL of PBS, and 100 µL of MTT was added, to reach a final concentration of 1 mg/ml of MTT. The cells were incubated for 3 h in darkness at 37°C. After removal of MTT solution, solubilization was initiated through the addition of […] of DMSO, and the cells were maintained at room temperature in darkness for 20 min to ensure thorough color diffusion before reading the absorbance with a microplate reader at 570 nm. The results were expressed as percentage viability relative to vehicle control (100%). The dose–response curves were plotted, and the IC50 values (concentration of drug resulting in 50% reduction in cell survival) were obtained using the commercial software package Prism (GraphPad® Software, Inc., La Jolla, CA, USA). All the experiments were repeated in at least three independent experiments.
On the technique in general: Formazan colour is commonly taken as a measure of viable cells.

Another series relates to HL60 leukemia cell line. Briefly: CellTiter-Blue cell viability assay. The format is cell-based. Conditions: Homo sapiens, HL-60, 48 h, read-out: IC50 ± SEM HL60. The method, then:
as §1
HL60, NB4, and KG1a were purchased from CLS Cell Line Service GmbH (Eppelheim, Germany). All cell lines were cultured in RPMI-1640 medium supplemented with 10% FBS (Thermo Fisher Scientific) and ciprofloxacin (10 μg/ml; Cipla Limited; Mumbai, India), at 37°C with 5% CO2 in a humidified incubator.
The CellTiter-Blue® Cell Viability assay was acquired from Promega Corporation (Madison, WI, USA). The cell viability assay was performed as follows: the cells (10^4/well) were incubated with a concentration gradient of the test compounds ranging from 0.01 to 100 μM, in 96-well plates for 48 h at 37°C. Subsequently, 20 µL of the CellTiter-Blue® Cell Viability reagent was added to each well and incubated for an additional 2 h for the development of fluorescence. The fluorescence emission was measured at 590 nm using the SpectraMax® i3x Multi-Mode Microplate Reader (Molecular Devices, LLC; San Jose, CA, USA.) and plotted against the drug concentrations to determine the IC50 of the test compounds.
(In general: Alamar Blue is a resazurin reagent that responds to reducing activity.)

The subject of a further series is tubulin polymerization. Also noted: method as in earlier work. Conditions: ref Hangauer, 2007; Smolinski et al., 2018; Markham and Duggan, 2021; read-out: tubulin polymerization inhibition IC50; cited from earlier work.
A further series concerns the target Src kinase. Also noted: method as in Antonarakis et al., 2013. Conditions: ref Antonarakis et al., 2013; read-out: Src kinase inhibition IC50; cited from earlier work.

Molecules are shown by their SMILES. Where only a bound is given, the exact number is not on record here.

Usually IC50 stands for the concentration that gives 50% inhibition. One may read the melting point as the temperature, or range, at which the solid turns liquid. In the case of `COc1ccc(C=C(NC(C)=O)C(=O)Nc2ccc(CC(=O)NCc3ccccc3)cc2)cc1` (stereo in doubt) [Compound 5, (E)-2-acetamido-N-(4-(2-(benzylamino)-2-oxoethyl)phenyl)-3-(4-methoxyphenyl) acrylamide], the melting point was 189 to 200 °C. Further, the IC50 in series [1] amounted to 41.1 ± 9.55 µM. Besides, the IC50 in series [2] came to 44.3 ± 9.2 µM. Moreover, in series [2] (on MCF7 and PC3 cells), the “times less active than 4c (KIM-161)” value is 20–40 times.

In turn, `CC1=N/C(=C\c2ccccc2)C(=O)N1c1ccc(CC(=O)NCc2ccccc2)cc1` [Compound 4a, (Z)-N-Benzyl-2-(4-(4-benzylidene-2-methyl-5-oxo-4,5-dihydro-1H-imidazol-1-yl)phenyl)acetamide] returned a melting point of 164 to 165 °C. In addition, the IC50 in series [1] stood at 1.67 ± 0.66 µM. For the same molecule, the IC50 in series [2] came to 11.6 ± 2.01 µM.

`CC1=N/C(=C\c2ccc(Cl)cc2)C(=O)N1c1ccc(CC(=O)NCc2ccccc2)cc1` [Compound 4b, (Z)-N-Benzyl-2-(4-(4-(4-chlorobenzylidene)-2-methyl-5-oxo-4,5-dihydro-1H-imidazol-1-yl)phenyl)acetamide] had a melting point of 209 to 211 °C. The IC50 in series [1] is 6.87 ± 0.41 µM. In addition, in series [2], the IC50 is 20.8 ± 1.35 µM. Also, the IC50 in series [3] was over 50 µM.

`COc1cc(/C=C2\N=C(C)N(c3ccc(CC(=O)NCc4ccccc4)cc3)C2=O)ccc1O` [Compound 4d, (Z)-N-Benzyl-2-(4-(4-(4-hydroxy-3-methoxybenzylidene)-2-methyl-5-oxo-4,5-dihydro-1H-imidazol-1-yl)phenyl)acetamide]: the IC50 in series [1] came to 5.83 ± 1.44 µM; in series [2], 9.48 ± 1.16 µM; in the series with HL60 leukemia cell line, 1.44 ± 0.07 µM; in series [3], 6.13 ± 1.35 µM.

`O=C(Cc1ccc(N2C(=O)/C(=C/c3ccccc3)N=C2c2ccccc2)cc1)NCc1ccccc1` [Compound 4e, (Z)-N-Benzyl-2-(4-(4-benzylidene-5-oxo-2-phenyl-4,5-dihydro-1H-imidazol-1-yl)phenyl)acetamide]: the melting point lay within 218 to 219 °C. In series [1], the IC50 was determined as 41.7 ± 2.99 µM. Besides, the IC50 in series [2] is 34.9 ± 8.08 µM.

Consider `O=C(Cc1ccc(N2C(=O)/C(=C/c3ccc(Cl)cc3)N=C2c2ccccc2)cc1)NCc1ccccc1` [Compound 4f, (Z)-N-Benzyl-2-(4-(4-(4-chlorobenzylidene)-5-oxo-2-phenyl-4,5-dihydro-1H-imidazol-1-yl)phenyl)acetamide], for which the melting point was in the range of 218 to 220 °C. The half-maximal inhibitory concentration (IC50) in series [1] stood at 74.2 ± 12.3 µM. The IC50 in series [2] came to 44.2 ± 8.67 µM.

Take `COc1ccc(/C=C2\N=C(c3ccccc3)N(c3ccc(CC(=O)NCc4ccccc4)cc3)C2=O)cc1` [Compound 4g, (Z)-N-Benzyl-2-(4-(4-(4-methoxybenzylidene)-5-oxo-2-phenyl-4,5-dihydro-1H-imidazol-1-yl)phenyl)acetamide]: the melting point was determined as 193 °C. In addition, the IC50 in series [1] was found to be 38.7 ± 5.01 µM. Besides, the IC50 in series [2] amounted to 32.1 ± 3.98 µM. Also, in series [2] (phenyl instead of methyl, Table 1), the “activity relative to KIM-161” value is “less than one-tenth”.

Take `COc1cc(/C=C2\N=C(c3ccccc3)N(c3ccc(CC(=O)NCc4ccccc4)cc3)C2=O)ccc1O` [Compound 4h, (Z)-N-Benzyl-2-(4-(4-(4-hydroxy-3-methoxybenzylidene)-5-oxo-2-phenyl-4,5-dihydro-1H-imidazol-1-yl)phenyl)acetamide]: the melting point fell in the range of 109 to 112 °C. Besides, in series [1], the IC50 was found to be 37.5 ± 15.4 µM. Besides, in series [2], the IC50 turned out to be 35.1 ± 4.57 µM.

As to `O=C(Cc1ccc(-c2ccc(OCCN3CCOCC3)cc2)cn1)NCc1ccccc1` [KX2-391, Tirbanibulin], the values for the IC50 with tubulin polymerization and on Src kinase were 0.25 µM and 0.025 µM, respectively.
